Test results as given in ChEMBL document CHEMBL1201862, “PubChem BioAssay data set” (2004).
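In this assay, cells in 96-well plates receive the compound at five concentrations for 48 hours. Endpoints are linearly interpolated between the surrounding concentrations. GI50: concentration for 50% inhibition of growth.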 Calls of active or inactive are those of the source. No stated cut-off is given here; in the data, active = GI50 up to about 1.1 µM and inactive = higher.

Key:
Test in all cases: NCI anticancer screen, dose series, 48 h
786-0 = system: 786-0
A549 = system: A549
ACHN = system: ACHN
BT-549 = system: BT-549
CAKI-1 = system: CAKI-1
CCRF-CEM = system: CCRF-CEM
COLO 205 = system: COLO 205
DU-145 = system: DU-145
EKVX = system: EKVX
HCC 2998 = system: HCC 2998
HCT-116 = system: HCT-116
HCT-15 = system: HCT-15
HOP-62 = system: HOP-62
HOP-92 = system: HOP-92
HT-29 = system: HT-29
Hs-578T = system: Hs-578T
IGROV-1 = system: IGROV-1
K562 = system: K562
KM12 = system: KM12
LOX IMVI = system: LOX IMVI
M14 = system: M14
MCF7 = system: MCF7
MDA-MB-231 = system: MDA-MB-231
MDA-MB-435 = system: MDA-MB-435
MDA-N = system: MDA-N
MOLT-4 = system: MOLT-4
NCI-H226 = system: NCI-H226
NCI-H23 = system: NCI-H23
NCI-H460 = system: NCI-H460
NCI-H522 = system: NCI-H522
NCI/ADR-RES = system: NCI/ADR-RES
OVCAR-3 = system: OVCAR-3
OVCAR-4 = system: OVCAR-4
OVCAR-5 = system: OVCAR-5
OVCAR-8 = system: OVCAR-8
PC-3 = system: PC-3
SF-268 = system: SF-268
SF-295 = system: SF-295
SF-539 = system: SF-539
SK-MEL-28 = system: SK-MEL-28
SK-MEL-5 = system: SK-MEL-5
SK-OV-3 = system: SK-OV-3
SN12C = system: SN12C
SNB-19 = system: SNB-19
SNB-75 = system: SNB-75
SR = system: SR
SW-620 = system: SW-620
TK-10 = system: TK-10
U-251 = system: U-251
UACC-257 = system: UACC-257
UACC-62 = system: UACC-62
UO-31 = system: UO-31

For `COC(=O)Cc1cccc2c(=O)c(S(=O)(=O)NC(=O)Nc3ccc(Cl)cc3)c(-c3ccccc3)oc12`, the GI50 (786-0) was > 100 µM (inactive), the GI50 (A549) was 69.2 µM (inactive) and the GI50 (ACHN) was 12.2 µM (inactive). For the same molecule, the GI50 (BT-549) was 55.6 µM (inactive), the GI50 (CAKI-1) was 24.3 µM (inactive) and the GI50 (CCRF-CEM) was 15.9 µM (inactive). For the same molecule, the GI50 (COLO 205) was 34.4 µM (inactive), the GI50 (DU-145) was > 100 µM (inactive) and the GI50 (EKVX) was > 100 µM (inactive). For the same molecule, the GI50 (HCC 2998) was 54.6 µM (inactive), the GI50 (HCT-116) was 33.3 µM (inactive) and the GI50 (HCT-15) was 8.75 µM. The GI50 (HOP-62) was > 100 µM (inactive), the GI50 (HOP-92) was 29.6 µM (inactive) and the GI50 (HT-29) was 74.5 µM (inactive). The GI50 (Hs-578T) was > 100 µM (inactive), the GI50 (IGROV-1) was 38.5 µM (inactive) and the GI50 (K562) was 4.3 µM (inactive). The GI50 (KM12) was 34.4 µM (inactive), the GI50 (LOX IMVI) was 13.5 µM (inactive) and the GI50 (M14) was > 100 µM (inactive). For the same molecule, the GI50 (MCF7) was 47.8 µM (inactive), the GI50 (MDA-MB-231) was 29.2 µM (inactive) and the GI50 (MDA-MB-435) was 11.3 µM (inactive). The GI50 (MDA-N) was > 100 µM (inactive), the GI50 (MOLT-4) was 17.1 µM (inactive) and the GI50 (NCI-H226) was > 100 µM (inactive). The GI50 (NCI-H23) was 57 µM (inactive), the GI50 (NCI-H460) was 32.7 µM (inactive) and the GI50 (NCI-H522) was 16.4 µM (inactive). For the same molecule, the GI50 (NCI/ADR-RES) was > 100 µM (inactive), the GI50 (OVCAR-3) was 79.8 µM (inactive) and the GI50 (OVCAR-4) was > 100 µM (inactive). The GI50 (OVCAR-5) was > 100 µM (inactive), the GI50 (OVCAR-8) was 69.3 µM (inactive) and the GI50 (PC-3) was 16.3 µM (inactive). For the same molecule, the GI50 (SF-268) was 73.5 µM (inactive), the GI50 (SF-295) was 67.9 µM (inactive) and the GI50 (SF-539) was 58.5 µM (inactive). The GI50 (SK-MEL-28) was 34.6 µM (inactive), the GI50 (SK-MEL-5) was 30.2 µM (inactive) and the GI50 (SK-OV-3) was > 100 µM (inactive). For the same molecule, the GI50 (SN12C) was 36.6 µM (inactive), the GI50 (SNB-19) was 44.6 µM (inactive) and the GI50 (SNB-75) was > 100 µM (inactive). The GI50 (SR) was 36.9 µM (inactive), the GI50 (SW-620) was 13.9 µM (inactive) and the GI50 (TK-10) was > 100 µM (inactive). For the same molecule, the GI50 (U-251) was 50.6 µM (inactive), the GI50 (UACC-257) was 87.5 µM (inactive) and the GI50 (UACC-62) was 13.5 µM (inactive). The GI50 (UO-31) was 25.8 µM (inactive).
